Experimental data as given in patent publication US12324848B2, “Core shell silica particles and uses thereof as an anti-bacterial agent” (Colgate-Palmolive Company, priority 2013, dated 2025).

Test system: Chemostat Inoculum (bacteria cocktail with A. viscosus, S. oralis, V. parvula, L. casei, and F. nucleatum)
Test: Resazurin anti-bacterial test (bacterial viability microassay)
Assay type: cell-based
Conditions: 1 hr incubation with test solution 1:1 in 1/4 strength trypticase soy broth, average of runs over 4-5 days, concentration as in toothpaste formula
Experimental: The core shell silica (CSS) particles of the invention were testing for anti-bacterial activity using the resazurin anti-bacterial test assay wherein the reduction of resazurin is a measure of reduction of bacterial growth.
All solutions are measured for the bacterial viability using resazurin microassay with Chemostat Inoculum (bacteria cocktail with A. viscosus, S. oralis, V. parvula, L. casei, and F. nucleatum) used in oral care product evaluation. Resazurin (7-Hydroxy-3H-phenoxazin-3-one 10-oxide) is a blue dye used as oxidation—reduction reaction, quantifies bacterial viability from color perception with respiring reaction effect.
Each experiment is conducted with live and dead bacterial cocktail with A. viscosus, S. oralis, V. parvula, L. casei, and F. nucleatum using TSB broth (trypticase soy broth) and ethanol respectively and they were added at proper ratio to generate standard curve from 100% live bacterial cocktail to 100% dead bacterial cocktail collecting at a total of 12 points.
The assay is performed using bacteria pellet from 1 ml Chemostat Inoculum and exposed with 1/4 strength trypticase soy broth: test solution at 1:1 ratio in Eppendorf tube. After 1 hr incubation further bacteria growth was deactivated adding 1 ml D/E Broth with proper mixing and collected pellet was rinsed with 1 ml TSB broth to remove D/E broth completely (D/E=Dey-Engley). […]

## [Cl-].[Cl-].[Zn+2] [Positive control (1% ZnCl2 + water), zinc chloride]
  % of viable bacteria: 4.88%
